“Also recorded” adds a separate entry of the source.
What was measured:
PKD2 [1] = biological target: T1, PKD2 (Homo sapiens, UniProt Q13563); assay: P. pastoris PKD2 Ca2+-dependent yeast growth assay (Stage 1); format: cell-based; settings: P. pastoris strain Y5634; read-out: EC50, yeast growth dependent on stimulation of PKD2 cation transport
T1 sequence (Q13563 1-968): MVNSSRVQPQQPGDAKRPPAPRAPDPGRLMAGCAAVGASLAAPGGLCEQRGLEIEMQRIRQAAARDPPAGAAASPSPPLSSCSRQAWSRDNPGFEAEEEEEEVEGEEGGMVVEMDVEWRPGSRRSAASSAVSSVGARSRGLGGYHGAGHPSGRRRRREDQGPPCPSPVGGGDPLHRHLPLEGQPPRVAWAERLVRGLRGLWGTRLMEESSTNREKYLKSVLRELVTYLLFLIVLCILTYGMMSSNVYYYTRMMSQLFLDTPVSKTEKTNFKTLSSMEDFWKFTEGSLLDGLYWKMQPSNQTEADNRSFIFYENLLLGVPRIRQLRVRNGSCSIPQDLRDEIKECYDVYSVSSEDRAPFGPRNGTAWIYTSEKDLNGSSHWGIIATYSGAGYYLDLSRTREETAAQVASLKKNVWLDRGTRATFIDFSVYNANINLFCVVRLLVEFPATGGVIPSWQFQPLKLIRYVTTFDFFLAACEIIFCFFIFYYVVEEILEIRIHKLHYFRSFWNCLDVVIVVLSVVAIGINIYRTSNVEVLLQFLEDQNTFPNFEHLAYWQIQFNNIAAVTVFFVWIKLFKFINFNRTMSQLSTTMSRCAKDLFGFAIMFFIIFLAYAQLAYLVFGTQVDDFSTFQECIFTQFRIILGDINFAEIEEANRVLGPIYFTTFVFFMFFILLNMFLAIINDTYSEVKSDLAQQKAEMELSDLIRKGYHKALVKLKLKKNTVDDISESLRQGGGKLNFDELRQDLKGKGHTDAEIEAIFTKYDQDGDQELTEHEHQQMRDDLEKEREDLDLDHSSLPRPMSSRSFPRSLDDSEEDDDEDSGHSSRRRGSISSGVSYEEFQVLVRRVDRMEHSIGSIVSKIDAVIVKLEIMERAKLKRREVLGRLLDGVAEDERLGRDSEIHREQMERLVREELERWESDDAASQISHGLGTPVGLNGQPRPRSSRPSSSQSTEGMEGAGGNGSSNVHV
Text: (§1) FIG. 31. […] Top, the screening of each stage. […] Bottom, cilia Ca^2+ responses from cells with PKD2 present and knocked out using CRISPR=Cas9 (N=17 cells each). D, E) Stage 3 (Cilia Electrophysiology): image of a patched cilia from collecting ducts and corresponding PKD2-dependent current activated by NS1643.
(§2) Our screening strategy included three stages. (See FIG. 31). In Stage 1 of our screening assay, we utilized cyst cells in a P. pastoris (strain YS634) PKD2 Ca^2+-dependent yeast growth assay. P. pastoris growth is dependent on induction and stimulation of PKD2 ion transport by test compounds including NS1643, calmidazolium, and W-13. In Stage 2, we measured PKD2 activation by the test compounds using increased ciliary Ca2+ fluorescence and membrane potential from human kidney collecting duct cells in which PKD2 had been knocked out by CRISPR-Cas9. In Stage 3, we assessed activation of polystin-2 dependent currents by the test compounds via imaging of patched cilia from collecting ducts and measuring change in current versus voltage. […] (See FIG. 32).

PKD2 [2] = biological target: T1, PKD2; assay: Cilia electrophysiology of patched cilia from collecting ducts (Stage 3); format: cell-based
Text: as §1, §2

PKD2 [3] = biological target: T1, PKD2; assay: PKD2 conductance assay; format: cell-based
Text: FIG. 35. Conductance of PKD2 in the presence of test compounds CAS Number 57265-65-3 (calmidazolium (CMZ)), CAS Number 617-27-0 (W-13), and CAS Number 448895-37-2 (NS1643)
We also tested the additional compound CAS Number 57265-65-3 (calmidazolium (CMZ)), the compound CAS Number 617-27-0 (W-13), and NS1643 in a PKD2 conductance assay.

PKD2 [4] = biological target: T1, PKD2; assay: Three stage testing strategy for PKD2 activators; format: cell-based; settings: three screening stages
Text: as §1
The polycystin pharmacophore remains outstanding because these channels localize to the primary cilium—an antenna-like organelle that requires innovative tools to study. To address this knowledge gap, our laboratory has established a series of cilia-specific channel activity reporters (voltage and calcium reporters) and model systems (poly cystin-dependent yeast growth) which will be used in a three-stage drug screen to characterize the pharmacology of polycystins. We screened a commercially available chemical library containing 384 compounds for activity against wild type polycystins, and identified three channel activators. […]
Our screening strategy included three stages. […] In Stage 2, we measured PKD2 activation by the test compounds using increased ciliary Ca2+ fluorescence and membrane potential from human kidney collecting duct cells in which PKD2 had been knocked out by CRISPR-Cas9. In Stage 3, we assessed activation of polystin-2 dependent currents by the test compounds via imaging of patched cilia from collecting ducts and measuring change in current versus voltage. […]

PKD2 [5] = biological target: T1, PKD2; assay: Cilia Ca2+ fluorescence (smo-GCaMP3), Stage 2; format: cell-based; design: cilia Ca^2+ responses from cells with PKD2 present and knocked out using CRISPR=Cas9; endogenous in cells; host or cells: human kidney collecting duct cells expressing the smo-GCaMP3 cilia reporter; settings: smo-GCaMP3, human kidney collecting duct cells; read-out: EC50, increased ciliary Ca2+ fluorescence
Text: as §1, §2

[6] = biological target: T2, human polycystin-2 CTD EF hand (I704-P797) (Homo sapiens, UniProt Q13563); assay: Isothermal titration calorimetry of divalent ions into the CTD of polycystin-2; format: binding
T2 construct: The C-terminal fragment of the human polycystin-2 (I704-P797) was cloned into the PET19b vector; 10xHis (N); made in house; host or cells: E. coli BL21 (DE3)
T2 sequence (Q13563 704-797): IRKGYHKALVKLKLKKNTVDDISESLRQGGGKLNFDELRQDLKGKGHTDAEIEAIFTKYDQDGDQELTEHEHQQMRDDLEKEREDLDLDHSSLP
Experimental: CTD protein expression, purification, and isothermal titration calorimetry. The C-terminal fragment of the human polycystin-2 (I704-P797) was cloned into the PET19b vector and transformed into BL21 (DE3) competent cells (New England Biolabs) for bacterial expression. The translated peptide has a 10×His tag on its N-terminus. The alanine mutants of the individual calcium-coordinating residues were created and transformed as well. Cells were grown in 2XYT broth in a 37° C. shaking incubator until OD600 reaches ˜0.6, and were induced by 0.4 mM isopropyl 1-thio-β-D-galactopyranoside and grown for another 4 hours. Cells were harvested and resuspended in Buffer A (500 mM NaCl, 20 mM Tris/HCl, pH 7.4), 5% glycerol, 0.25 mM EDTA pH 8.0, 1 mM PMSF (RPI), 25 μg/ml of lysozyme and DNase I (GoldBio). The suspension was then lysed by sonication and clarified by centrifugation (30,000×g for 0.5 h). Filtered supernatant was loaded into a HisPur cobalt Superflow agarose column (ThermoScientific). The column was washed with 10 column volume (CV) of buffer A, 5 CV of buffer A+5 mM imidazole, and finally eluted with 3 CV of buffer A+100 mM imidazole. The eluate was desalted by dialysis in 150 mM NaCl, 20 mM Tris/HCl, 20 mM imidazole, pH 7.4. SDS-PAGE gel confirmed the expression, solubility, and purity of the peptide. All of our solutions were formulated with ultrapure water (Milli-Q® IQ 7005 water purification system), that has less than 0.29 ng/L calcium ions present. The binding affinity is recorded based on the heat difference between the sample cell and reference cell measured by MicroCal iTC200. […] The cells were insulated by an adiabatic jacket held at 25° C. The heat of dilution of Ca^2+ was not subtracted from data sets, as the signal was prohibitively small for several of the mutant channels. The exothermic energy of the bimolecular interaction between Ca^2+ and peptide during each injection was analyzed by integrating the change in heat to generate the binding isotherm. […]

polycystin-2 = biological target: T3, polycystin-2 (Homo sapiens, UniProt Q13563); format: cell-based; settings: 10 μM, voltage ramps
T3 construct: expressed in transfected cells
T3 sequence (Q13563 1-968): T1 sequence (Q13563 1-968)
Text: Generation of HEK PKD2^Null cells line and the stable expression PKD2 variants. To generate the HEK PKD2^Null cell lines, we used a CRISPR/Cas9 gene editing kit available from Addgene (kit 1000000055). HEK 293 cells were electro-transfected with sgRNAs (caccg[…] and aaac[…]c) with the All-in-one Cas9 plasmid. […] Cells generated from single cell clones were selected after 4 weeks of expansion in a 96-wells plate. […] To generate the WT and variant PKD2 GFP or mCherry C-terminally tagged variant cell lines, the hPKD gene was subcloned into lentiviral pLVX-mcherry-N1 (Clontech) or pLVX-GFP-N1 (Clontech) vector using the Gibson assembly method. A linker encoding for six glycine residues was added between the PKD2 gene and the C-terminal tags, and missense variants were generated using standard, site-directed mutagenesis. The third-generation lentiviral packaging plasmids used for stable expression contained: pMDLg/pRRE (Addgene), […] pRSV-Rev (Addgene), and envelope expressing plasmid pMD2.G (Addgene). LentiX-293T cells (Takara) were transfected with polyethylineimine (Polysciences) at a 4:1:1:1 ratio of the transgene and viral packaging constructs. Supernatants were collected 48 and 72 hours post transfection and filtered through a 0.45 μm syringe filter. Lentiviral supernatant was concentrated 100 times using 1 volume of PEG-it (System Biosciences) virus precipitation solution and 4 volume of lentivirus-containing supernatant. The PEG-it and supernatant mixture were kept at 4 degrees for 24 hours and centrifuged at 1500 rpm for 30 minutes. The pellet containing lentivirus was resuspended with 1/100th volume of PBS of the original supernatant volume. HEK cells were infected with the lentivirus supernatant; PKD2-GFP or PKD2-mCherry expression was selected using culture media containing puromycin (2 μg/ml) for 30 to 90 days. Cells were then fluorescence-activated cell sorted (BD FacsMelody) at 5000 to 10,000 counts per minute to enrich for the transgene expression. Stable cell lines were cultured in Dulbecco's modified essential medium (DMEM) supplemented with 10% fetal bovine serum (FBS) and 100 units/ml penicillin, 100 units/ml streptomycin and 1 μg/ml puromycin selection antibiotic.
(§3) Electrophysiology. Ciliary ion currents were recorded using borosilicate glass electrodes polished to resistances of 14-22 MΩ using the cilium patch method previously described^32. Whole cell electrodes used to measure poly cystin-2L1 currents were fire polished to 1.5-4 MΩ resistances. Unless otherwise stated, whole cilia ionic currents were recorded in symmetrical [Na^+]. The pipette standard internal solution contained (in mM): 90 NaMES, 10 NaCl, 10 HEPES, 10 Na4-BAPTA (Glycine, N, N′-[1,2-ethanediylbis(oxy-2,1-phenylene)]bis[N-(carboxymethyl)]-,tetrasodium); pH was adjusted to 7.3 using NaOH. Standard bath solution contained 140 NaCl, 10 HEPES, 1.8 CaCl2); pH 7.4. All solutions were osmotically balanced to 295 (±6) mOsm with mannitol. Extracellular solutions containing TCEP and GSH were used within six hours of formulation. Data were collected using an Axopatch 200B patch clamp amplifier, Digidata 1440A, and pClamp 10 software. Whole-cilium and excised patch currents were digitized at 25 kHz and low-pass filtered at 10 kHz. In the whole cilium configuration, the holding potential was −60 mV and then depolarized using a 400 ms voltage ramp from −100 mV to 100 mV. The whole cell recordings of polycystin-2L1 currents were either activated by the same ramp protocol or by 100 ms depolarizations to 100 mV from a −100 mV holding potential.

polycystin-2L1 = format: cell-based; settings: 10 μM, plasma membrane of HEK cells
Experimental: as §3, with “potential. External conditions were controlled using a Warner Perfusion Fast-Step (SF-77B) system in which the patched cilia and electrode were held in the perfusate stream. Data were analyzed by Igor Pro 7.00 (Wavemetrics, Lake Oswego, Oreg.). The polycystin-2 open probability and the polycystin-2L1 tail current-voltage relationships were fit to a Boltzmann function, f(x)=1/(1+exp[V−V1/2]/k) to estimate voltage of half-maximal activation of current (V1/2).” for “potential.”

SMILES: O=C(Nc1cc(C(F)(F)F)ccc1O)Nc1cc(C(F)(F)F)ccc1O [NS1643, 1,3-bis[2-hydroxy-5-(trifluoromethyl)phenyl]urea]
- EC50 (PKD2 [1]): 1.1 µM
- PKD2-dependent current (PKD2 [2]): activated
- PKD2 conductance (PKD2 [3]): increased PKD2 conductance
- Identification as PKD2 activator (PKD2 [4]): identified as an activator of PKD2 activity; also recorded: exemplary PKD2 activator
- EC50 (PKD2 [5]): 2.3 µM

SMILES: NCCCCCCNS(=O)(=O)c1cccc2c(Cl)cccc12 [W-13, N-(6-Aminohexyl)-5-chloro-1-naphthalenesulfonamide]
- PKD2 conductance (PKD2 [3]): increased PKD2 conductance

SMILES: [Zn+2] [Zn^2+]
- Affinity of other divalent ions for polycystin-2 EF hand [6]: did not have affinity

SMILES: [Mg+2] [Mg^2+]
- Affinity of other divalent ions for polycystin-2 EF hand [6]: did not have affinity

SMILES: [La] [lanthanum]
- Block of ciliary WT polycystin-2 currents by trivalent ions (polycystin-2): blocked
- Block of polycystin-2L1 currents by trivalent ions (polycystin-2L1): blocked

— patent publication US20210369677A1, “SMALL MOLECULE ACTIVATORS OF POLYCYSTIN-2 (PKD2) AND USES THEREOF” (Northwestern University, priority 2020, published 2021)
